Measured values reported in patent US8580526B2, “Methods of using GPR119 receptor to identify compounds which stimulate glucose-dependent insulinotropic peptide secretion” (Arena Pharmaceuticals, Inc., priority 2006, dated 2013).

Tests used:
[1] = biological target: T1, GPR119 (Mus musculus, UniProt Q7TQP3); test: Effect of oral GPR119 agonist on blood GIP level in GPR119-deficient (knockout) mice compared to wild-type mice, rodent GIP ELISA; type: in vivo, GPR119-deficient male mice and wild-type littermates; parameters: endogenous in cells; host or cells: whole animal: GPR119-deficient male mice and wild-type littermates, oral dosing; details: 20 mg/kg per orally, FIG. 2A
T1 sequence (Q7TQP3 1-335): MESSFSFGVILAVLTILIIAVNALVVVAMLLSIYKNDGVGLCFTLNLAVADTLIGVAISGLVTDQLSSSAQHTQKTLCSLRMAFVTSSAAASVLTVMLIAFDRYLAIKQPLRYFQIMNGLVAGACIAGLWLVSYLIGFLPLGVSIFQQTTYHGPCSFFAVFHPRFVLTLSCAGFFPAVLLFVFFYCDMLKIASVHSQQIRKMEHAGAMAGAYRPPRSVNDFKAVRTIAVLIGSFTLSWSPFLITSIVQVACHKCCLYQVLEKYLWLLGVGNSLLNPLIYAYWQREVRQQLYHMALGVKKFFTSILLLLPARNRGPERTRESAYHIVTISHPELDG
Procedure: A. GPR119-deficient male mice and wild-type littermates were fasted for 18 hours. Mice were administered per orally with vehicle (PET; 80% PEG400, 10% ethanol, 10% Tween80) or with a GPR119 agonist in accordance with the present invention (Compound 1; (2-Fluoro-4-methanesulfonyl-phenyl)-{6-[4-(3-isopropyl-[1,2,4]oxadiazol-5-yl)-piperidin-1-yl]-5-nitro-pyrimidin-4-yl}-amine) at 20 mg/kg, as indicated (n=5). Thirty minutes after treatment, blood (100 microliter) was collected via retro orbital vein of the eye (time 0) followed by a glucose bolus at 3 g/kg (per orally). Five minutes after I delivering glucose, another blood sample (100 microliter) was collected (time 5 minutes). Plasma were collected after centrifugation and GIP levels were determined by using a rodent GIP ELISA kit purchased from Linco Research Laboratory [Rat/Mouse Gastric Inhibitory Polypeptide (Total) ELISA Catalog #EZRMGIP-55K], following instructions provided by the supplier. […]
B. GPR119-deficient male mice and wild-type littermates were fasted for 18 hours. […] Plasma were collected after centrifugation and GIP levels were determined by using a rodent GIP ELISA kit purchased from Linco Research Laboratory [Rat/Mouse Gastric Inhibitory Polypeptide (Total) ELISA Catalog #EZRMGIP-55K], following instructions provided by the supplier. […]

[2] = biological target: T1, GPR119; test: Pharmacodynamic analysis of effect of oral GPR119 agonist on blood (plasma total) GIP level in wild-type mice, rodent GIP ELISA; type: in vivo, C57blk/6 male mice; parameters: Effect of Administration of GPR119 Agonist on Blood GIP Level in Wild-Type Mice; endogenous in cells; host or cells: whole animal: C57blk/6 male mice, oral dosing; details: 20 mg/kg per orally, 30 min before glucose bolus 3 g/kg, FIG. 1A
Procedure: A. C57blk/6 male mice were fasted for 18 hours, and randomly assigned into fourteen groups with n=6 for each group. Mice were administered per orally with vehicle (PET; 80% PEG400, 10% ethanol, 10% Tween80) or with a GPR119 agonist in accordance with the present invention (Compound 1; (2-Fluoro-4-methanesulfonyl-phenyl)-{6-[4-(3-isopropyl-1,2,4]oxadiazol-5-yl)-piperidin-1-yl]-5-nitro-pyrimidin-4-yl}-amine) at 20 mg/kg, as indicated in FIG. 1A. Thirty minutes after treatment, a glucose bolus at 3 g/kg were delivered per orally, and plasma were collected at 0 (no glucose bolus), 2, 5, 10, 20, 40 and 60 minutes after glucose bolus. Plasma GIP levels were determined by using a rodent GIP ELISA kit purchased from Linco Research Laboratory [Rat/Mouse Gastric Inhibitory Polypeptide (Total) ELISA Catalog #EZRMGIP-55K], following instructions provided by the supplier. […]
B. C57blk/6 male mice were fasted for 18 hours, and randomly assigned into fourteen groups with n=6 for each group. […] Plasma GIP levels were determined by using a rodent GIP ELISA kit purchased from Linco Research Laboratory [Rat/Mouse Gastric Inhibitory Polypeptide (Total) ELISA Catalog #EZRMGIP-55K], following instructions provided by the supplier. […] Mean values of GIP concentration were calculated based on results with six mice in each group and shown as mean±SEM. […]

Compound: CC(C)c1noc(C2CCN(c3ncnc(Nc4ccc(S(C)(=O)=O)cc4F)c3[N+](=O)[O-])CC2)n1 [Compound 1, (2-Fluoro-4-methanesulfonyl-phenyl)-{6-[4-(3-isopropyl-[1,2,4]oxadiazol-5-yl)-piperidin-1-yl]-5-nitro-pyrimidin-4-yl}-amine]
- dependence on GPR119 of the increase of glucose-independent and glucose-dependent level of GIP in the blood ([1]; GPR119-deficient vs wild-type mice, time 0 and 5 min after glucose bolus 3 g/kg): functional GPR119 receptor was necessary
- plasma total GIP in wild-type mice ([1]; blood 30 min after treatment (time 0) and 5 min after glucose bolus 3 g/kg): stimulated plasma total GIP in the wild-type mice
- glucose-dependent and glucose-independent level of GIP in the blood ([2]; plasma at 0 (no glucose bolus) to 60 min): increased both a glucose-dependent and a glucose-independent level of GIP
- plasma total GIP ([2]; plasma at 0 (no glucose bolus), 2, 5, 10, 20, 40, 60 min, vs vehicle PET): stimulated plasma total GIP
